Patent US20250114345A1, “COMPOUNDS AND COMPOSITIONS AS CBP/P300 DEGRADERS AND USES THEREOF” (Oncopia Therapeutics, Inc. d/b/a/ SK Life Science Labs, priority 2023, published 2025)

Legend:
[1] = molecular target: T1, p300 (Homo sapiens, UniProt Q09472); assay: P300 degradation, HiBit technology in A549 P300 HiBit cells (2 h); format: cell-based; details: 2 hrs post treatment; for Dmax: A549, A549 P300 HiBit cells; for DC50: A549 P300 HiBit cells
T1 construct: host or cells: A549 P300 HiBit cells
In short: (§1)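 Degradation potency and Dmax came from HiBiT luminescence in tagged A549 cells treated with serially diluted compound (DMSO stocks at 10 mM) after overnight equilibration in F-12K with 10% heat-inactivated FBS.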

[2] = molecular target: T2, CBP (Homo sapiens, UniProt Q92793); assay: CBP degradation, HiBit technology in A549 CBP HiBit cells (24 h); format: cell-based; details: 24 hrs post treatment
T2 construct: host or cells: A549 CBP HiBit cells
In short: as §1

T1 sequence (Q09472 whole entry): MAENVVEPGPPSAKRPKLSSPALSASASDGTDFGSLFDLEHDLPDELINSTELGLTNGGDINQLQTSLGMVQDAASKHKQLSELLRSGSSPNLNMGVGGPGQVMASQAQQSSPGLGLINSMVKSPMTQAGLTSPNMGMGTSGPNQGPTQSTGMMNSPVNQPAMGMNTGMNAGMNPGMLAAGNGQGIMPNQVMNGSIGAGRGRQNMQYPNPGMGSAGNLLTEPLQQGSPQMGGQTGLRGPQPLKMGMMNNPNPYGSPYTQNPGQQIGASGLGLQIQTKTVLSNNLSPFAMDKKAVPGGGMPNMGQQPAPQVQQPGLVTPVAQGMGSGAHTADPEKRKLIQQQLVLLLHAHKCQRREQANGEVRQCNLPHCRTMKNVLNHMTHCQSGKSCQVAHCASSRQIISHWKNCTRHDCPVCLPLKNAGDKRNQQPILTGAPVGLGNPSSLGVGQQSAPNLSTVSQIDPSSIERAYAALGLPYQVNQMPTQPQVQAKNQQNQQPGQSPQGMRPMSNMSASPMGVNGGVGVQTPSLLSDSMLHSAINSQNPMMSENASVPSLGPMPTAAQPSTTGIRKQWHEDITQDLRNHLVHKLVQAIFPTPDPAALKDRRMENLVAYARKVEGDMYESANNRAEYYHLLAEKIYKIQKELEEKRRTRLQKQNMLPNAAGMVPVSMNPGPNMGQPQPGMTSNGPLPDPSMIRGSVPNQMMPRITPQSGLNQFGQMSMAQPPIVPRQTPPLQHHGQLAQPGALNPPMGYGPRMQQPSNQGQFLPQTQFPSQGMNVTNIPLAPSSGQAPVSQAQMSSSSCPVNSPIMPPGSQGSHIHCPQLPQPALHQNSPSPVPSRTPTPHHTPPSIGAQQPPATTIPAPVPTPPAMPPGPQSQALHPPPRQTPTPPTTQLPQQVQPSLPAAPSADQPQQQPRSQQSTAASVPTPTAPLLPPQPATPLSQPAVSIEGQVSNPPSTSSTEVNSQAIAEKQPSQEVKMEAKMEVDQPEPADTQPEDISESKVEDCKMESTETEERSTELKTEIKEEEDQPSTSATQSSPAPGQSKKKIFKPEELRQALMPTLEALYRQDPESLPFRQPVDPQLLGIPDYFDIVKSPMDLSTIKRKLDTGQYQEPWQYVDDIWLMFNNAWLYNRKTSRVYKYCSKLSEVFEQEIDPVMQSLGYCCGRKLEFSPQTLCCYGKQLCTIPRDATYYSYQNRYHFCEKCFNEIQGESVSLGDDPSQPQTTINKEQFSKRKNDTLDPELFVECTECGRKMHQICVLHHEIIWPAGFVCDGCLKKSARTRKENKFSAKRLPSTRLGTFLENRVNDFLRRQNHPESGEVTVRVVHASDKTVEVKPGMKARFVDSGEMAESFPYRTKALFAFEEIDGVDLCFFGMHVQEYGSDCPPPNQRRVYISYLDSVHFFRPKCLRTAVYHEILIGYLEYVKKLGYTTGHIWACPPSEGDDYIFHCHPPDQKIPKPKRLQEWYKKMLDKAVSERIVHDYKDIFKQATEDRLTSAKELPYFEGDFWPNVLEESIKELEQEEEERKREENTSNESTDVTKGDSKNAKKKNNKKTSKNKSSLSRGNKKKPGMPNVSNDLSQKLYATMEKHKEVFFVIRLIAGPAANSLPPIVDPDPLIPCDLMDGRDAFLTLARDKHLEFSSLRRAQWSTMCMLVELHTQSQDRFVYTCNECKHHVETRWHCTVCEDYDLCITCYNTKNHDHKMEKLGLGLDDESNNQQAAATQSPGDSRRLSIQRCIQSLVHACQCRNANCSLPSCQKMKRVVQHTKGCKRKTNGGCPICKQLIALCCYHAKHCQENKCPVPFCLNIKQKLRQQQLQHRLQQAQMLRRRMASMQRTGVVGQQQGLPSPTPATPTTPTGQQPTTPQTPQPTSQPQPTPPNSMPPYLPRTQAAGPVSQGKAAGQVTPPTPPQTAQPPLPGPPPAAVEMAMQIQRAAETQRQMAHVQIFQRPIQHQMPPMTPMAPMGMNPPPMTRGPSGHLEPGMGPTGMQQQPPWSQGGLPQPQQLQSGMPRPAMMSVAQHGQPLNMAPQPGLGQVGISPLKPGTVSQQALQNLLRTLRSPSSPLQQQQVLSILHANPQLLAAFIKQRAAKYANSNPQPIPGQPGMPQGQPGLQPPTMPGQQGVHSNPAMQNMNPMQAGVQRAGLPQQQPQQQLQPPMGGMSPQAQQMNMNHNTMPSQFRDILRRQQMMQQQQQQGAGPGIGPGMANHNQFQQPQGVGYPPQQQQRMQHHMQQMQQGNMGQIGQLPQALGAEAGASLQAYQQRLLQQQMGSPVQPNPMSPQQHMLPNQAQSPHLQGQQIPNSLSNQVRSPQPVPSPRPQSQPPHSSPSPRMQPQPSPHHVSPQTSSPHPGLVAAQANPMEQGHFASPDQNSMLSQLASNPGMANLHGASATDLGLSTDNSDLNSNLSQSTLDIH
T2 sequence (Q92793 whole entry): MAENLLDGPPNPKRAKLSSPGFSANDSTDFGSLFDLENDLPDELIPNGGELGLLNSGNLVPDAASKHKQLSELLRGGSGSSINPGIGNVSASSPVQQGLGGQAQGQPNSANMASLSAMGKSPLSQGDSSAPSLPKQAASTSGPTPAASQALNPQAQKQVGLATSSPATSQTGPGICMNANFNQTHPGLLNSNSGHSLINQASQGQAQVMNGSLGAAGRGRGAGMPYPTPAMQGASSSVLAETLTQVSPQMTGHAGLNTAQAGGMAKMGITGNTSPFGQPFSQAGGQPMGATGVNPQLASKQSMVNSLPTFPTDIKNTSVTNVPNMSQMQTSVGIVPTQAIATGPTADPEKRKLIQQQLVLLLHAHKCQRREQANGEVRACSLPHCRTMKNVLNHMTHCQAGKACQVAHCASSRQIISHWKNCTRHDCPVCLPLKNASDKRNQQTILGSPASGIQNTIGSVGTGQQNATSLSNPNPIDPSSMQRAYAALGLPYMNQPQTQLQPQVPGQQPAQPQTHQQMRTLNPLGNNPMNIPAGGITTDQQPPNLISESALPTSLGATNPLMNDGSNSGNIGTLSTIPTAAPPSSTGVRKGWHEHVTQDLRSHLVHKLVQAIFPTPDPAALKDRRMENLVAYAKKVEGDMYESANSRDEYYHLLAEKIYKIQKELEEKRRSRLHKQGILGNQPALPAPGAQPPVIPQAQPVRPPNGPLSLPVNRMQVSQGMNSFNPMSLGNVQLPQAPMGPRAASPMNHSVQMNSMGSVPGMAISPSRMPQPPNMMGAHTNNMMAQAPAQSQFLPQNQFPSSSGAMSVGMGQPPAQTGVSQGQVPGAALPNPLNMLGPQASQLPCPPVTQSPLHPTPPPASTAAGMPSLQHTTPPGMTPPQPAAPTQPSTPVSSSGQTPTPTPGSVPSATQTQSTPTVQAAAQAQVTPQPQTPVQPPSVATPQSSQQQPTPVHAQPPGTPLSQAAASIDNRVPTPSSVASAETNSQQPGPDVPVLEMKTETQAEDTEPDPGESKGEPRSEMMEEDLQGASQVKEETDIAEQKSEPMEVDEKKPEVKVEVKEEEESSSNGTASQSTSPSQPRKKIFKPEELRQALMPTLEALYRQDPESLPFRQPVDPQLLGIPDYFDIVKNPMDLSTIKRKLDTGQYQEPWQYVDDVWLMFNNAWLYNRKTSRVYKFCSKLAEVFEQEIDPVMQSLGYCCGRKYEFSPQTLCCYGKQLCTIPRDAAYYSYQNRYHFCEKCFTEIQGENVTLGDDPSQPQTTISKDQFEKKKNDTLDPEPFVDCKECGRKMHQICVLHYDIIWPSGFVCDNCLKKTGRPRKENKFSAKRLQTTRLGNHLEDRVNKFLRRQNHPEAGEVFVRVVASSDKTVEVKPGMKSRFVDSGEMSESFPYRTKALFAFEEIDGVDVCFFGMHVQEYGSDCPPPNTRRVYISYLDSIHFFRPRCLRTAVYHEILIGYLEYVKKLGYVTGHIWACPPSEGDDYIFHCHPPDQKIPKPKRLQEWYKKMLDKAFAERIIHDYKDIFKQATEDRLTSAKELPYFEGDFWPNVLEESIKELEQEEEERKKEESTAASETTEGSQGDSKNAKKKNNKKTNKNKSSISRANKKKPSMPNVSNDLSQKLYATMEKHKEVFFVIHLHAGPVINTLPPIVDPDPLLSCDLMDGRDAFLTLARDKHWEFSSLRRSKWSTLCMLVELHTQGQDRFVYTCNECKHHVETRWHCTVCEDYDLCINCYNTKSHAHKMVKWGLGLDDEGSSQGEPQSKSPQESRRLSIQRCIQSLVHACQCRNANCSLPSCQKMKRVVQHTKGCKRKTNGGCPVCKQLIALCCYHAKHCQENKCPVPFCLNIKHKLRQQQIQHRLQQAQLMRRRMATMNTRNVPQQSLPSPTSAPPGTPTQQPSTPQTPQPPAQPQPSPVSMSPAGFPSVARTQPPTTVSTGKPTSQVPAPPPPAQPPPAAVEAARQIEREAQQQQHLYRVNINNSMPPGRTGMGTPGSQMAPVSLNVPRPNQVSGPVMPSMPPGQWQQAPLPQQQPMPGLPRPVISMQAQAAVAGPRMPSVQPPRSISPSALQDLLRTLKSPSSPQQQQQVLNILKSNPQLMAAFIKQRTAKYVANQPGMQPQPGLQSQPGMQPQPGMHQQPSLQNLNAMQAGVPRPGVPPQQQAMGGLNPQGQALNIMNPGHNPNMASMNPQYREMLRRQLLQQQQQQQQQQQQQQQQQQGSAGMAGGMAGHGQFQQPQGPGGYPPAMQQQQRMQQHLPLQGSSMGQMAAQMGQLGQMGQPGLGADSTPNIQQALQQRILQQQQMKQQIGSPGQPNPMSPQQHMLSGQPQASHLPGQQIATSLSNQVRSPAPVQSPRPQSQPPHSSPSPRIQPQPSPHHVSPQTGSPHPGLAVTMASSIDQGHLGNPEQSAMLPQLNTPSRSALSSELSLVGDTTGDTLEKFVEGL

| Compound | Dmax [1] | DC50 [1] | DC50 [2] | Dmax [2] |
| --- | --- | --- | --- | --- |
| Cc1cc2c(N3CCCc4nc(-c5ccc(C(=O)NCC#Cc6cc7c(C8CCC(=O)NC8=O)cccc7o6)nc5)ncc43)cc(C3COC3)nc2n(C)c1=O (centres unmarked) [Example B163, 5-(5-(6,8-dimethyl-2-(oxetan-3-yl)-7-oxo-7,8-dihydro-1,8-naphthyridin-4-yl)-5,6,7,8-tetrahydropyrido[3,2-d]pyrimidin-2-yl)-N-(3-(4-(2,6-dioxopiperidin-3-yl)benzofuran-2-yl)prop-2-yn-1-yl)picolinamide] | > 80% | < 1 nM | > 1000 nM | < 20% |
| Cc1cc2c(N3CCCc4nc(-c5ccc(C(=O)NCC#Cc6ccc7occ(C8CCC(=O)NC8=O)c7c6)nc5)ncc43)cc(Cl)cc2n(C)c1=O (centres unmarked) [Example B119, 5-(5-(7-chloro-1,3-dimethyl-2-oxo-1,2-dihydroquinolin-5-yl)-5,6,7,8-tetrahydro[3,2-d]pyrimidin-2-yl)-N-(3-(3-(2,6-dioxopiperidin-3-yl)benzofuran-5-yl)prop-2-yn-1-yl) picolinamide] | 60 to 79% | 1 to 9.9 nM | > 1000 nM | < 20% |
| CCN(c1cnc(-c2cnc(C(=O)NCC#Cc3ccc4occ(C5CCC(=O)NC5=O)c4c3)c(C)c2)nc1)c1cc(C2CCOCC2)c2c(c1)n(C)c(=O)n2C (centres unmarked) [Example A95, 5-(5-((1,3-dimethyl-2-oxo-7-(tetrahydro-2H-pyran-4-yl)-2,3-dihydro-1H-benzo [d]imidazol-5-yl)(ethyl)amino)pyrimidin-2-yl)-N-(3-(3-(2,6-dioxopiperidin-3-yl)benzofuran-5-yl)prop-2-yn-1-yl)-3-methylpicolinamide] | > 80% | 1 to 9.9 nM | > 1000 nM | < 20% |
| CC(C)c1cc(-c2cccc3cc(-c4ccc(C(=O)NCC#Cc5cc6c(C7CCC(=O)NC7=O)cccc6o5)nc4)ncc23)cc2c1n(C)c(=O)n2C (centres unmarked) [Example A197, N-(3-(4-(2,6-dioxo-piperidin-3-yl)benzofuran-2-yl)prop-2-yn-1-yl)-5-(8-(7-isopropyl-1,3-dimethyl-2-oxo-2,3-dihydro-1H-benzo [d]imidazol-5-yl)isoquinolin-3-yl)picolinamide] | > 80% | 1 to 9.9 nM | > 1000 nM | < 20% |
| CC(C)c1cc(-c2cccc3cc(-c4ccc(C(=O)NCC#Cc5cnc6c(c5)c(C5CCC(=O)NC5=O)nn6C)nc4)ncc23)cc2c1n(C)c(=O)n2C (centres unmarked) [Example A221, N-(3-(3-(2,6-dioxo-piperidin-3-yl)-1-methyl-1H-pyrazolo [3,4-b]pyridin-5-yl)prop-2-yn-1-yl)-5-(8-(7-isopropyl-1,3-dimethyl-2-oxo-2,3-dihydro-1H-benzo[d]imidazol-5-yl)isoquinolin-3-yl)picolinamide] | > 80% | 1 to 9.9 nM | > 1000 nM | < 20% |
| Cc1oc2ccc(C#CCNC(=O)c3ccc(-c4cc5cccc(-c6cc(C(C)C)c7c(c6)n(C)c(=O)n7C)c5cn4)cn3)cc2c1C1CCC(=O)NC1=O (centres unmarked) [Example A248, N-(3-(3-(2,6-dioxo-piperidin-3-yl)-2-methylbenzofuran-5-yl)prop-2-yn-1-yl)-5-(8-(7-isopropyl-1,3-dimethyl-2-oxo-2,3-dihydro-1H-benzo [d]imidazol-5-yl)isoquinolin-3-yl) picolinamide] | > 80% | 10 to 99 nM | > 1000 nM | < 20% |
| Cn1c(=O)n(C)c2c(N3CCOCC3)nc(-c3cccc4cc(-c5ccc(C(=O)NCC#Cc6cc7c(C8CCC(=O)NC8=O)cccc7o6)nc5)ncc34)cc21 (centres unmarked) [Example A223, 5-(8-(1,3-dimethyl-4-morpholino-2-oxo-2,3-dihydro-1H-imidazo[4,5-c]pyridin-6-yl)isoquinolin-3-yl)-N-(3-(4-(2,6-dioxopiperidin-3-yl)benzofuran-2-yl)prop-2-yn-1-yl)picolinamide] | > 80% | < 1 nM | 100 to 999 nM | < 20% |
| CC(C)c1cc(-c2cccc3cc(-c4ccc(C(=O)NCC#Cc5ccc6ncc(C7CCC(=O)NC7=O)n6c5)nc4)ncc23)cc2c1n(C)c(=O)n2C (centres unmarked) [Example A25, N-(3-(3-(2,6-Dioxopiperidin-3-yl)imidazo[1,2-a]pyridin-6-yl)prop-2-yn-1-yl)-5-(8-(7-isopropyl-1,3-dimethyl-2-oxo-2,3-dihydro-1H-benzo[d]imidazol-5-yl)isoquinolin-3-yl)picolinamide] | > 80% | < 1 nM | 100 to 999 nM | < 20% |
| CC(C)c1cc(-c2cccc3cc(-c4ccc(C(=O)NCC#Cc5ccc6cnn(C7CCC(=O)NC7=O)c6c5Cl)nc4)ncc23)cc2c1n(C)c(=O)n2C (centres unmarked) [Example A39, N-(3-(7-Chloro-1-(2,6-dioxopiperidin-3-yl)-1H-indazol-6-yl)prop-2-yn-1-yl)-5-(8-(7-isopropyl-1,3-dimethyl-2-oxo-2,3-dihydro-1H-benzo[d]imidazol-5-yl)isoquinolin-3-yl)picolinamide] | > 80% | 1 to 9.9 nM | 100 to 999 nM | 20 to 39% |
| Cc1cc(-c2cc3cccc(-c4ccc5c(c4)n(C)c(=O)n5C)c3cn2)cnc1C(=O)NCC#Cc1ccc2occ([C@@H]3CCC(=O)NC3=O)c2c1 [Example A61, (S)-5-(8-(1,3-dimethyl-2-oxo-2,3-dihydro-1H-benzo[d]imidazol-5-yl)isoquinolin-3-yl)-N-(3-(3-(2,6-dioxo-piperidin-3-yl)benzofuran-5-yl)prop-2-yn-1-yl)-3-methylpicolinamide] | > 80% | 1 to 9.9 nM | > 1000 nM | < 20% |
| Cc1cc2c(N3CCCc4nc(-c5ccc(C(=O)NCC#Cc6cc7c(C8CCC(=O)NC8=O)nccc7o6)nc5)ncc43)cc(C3CCOCC3)cc2n(C)c1=O (centres unmarked) [Example B94, 5-(5-(1,3-dimethyl-2-oxo-7-(tetrahydro-2H-pyran-4-yl)-1,2-dihydroquinolin-5-yl)-5,6,7,8-tetrahydropyrido[3,2-d]pyrimidin-2-yl)-N-(3-(4-(2,6-dioxopiperidin-3-yl)furo[3,2-c]pyridin-2-yl)prop-2-yn-1-yl)picolinamide] | > 80% | < 1 nM | 1 to 9.9 nM | 20 to 39% |
| Cc1cc2c(N3CCCc4nc(-c5ccc(C(=O)NCC#Cc6cc7c(C8CCC(=O)NC8=O)c(F)ccc7o6)nc5)ncc43)cc(C3CCOCC3)cc2n(C)c1=O (centres unmarked) [Example B90, 5-(5-(1,3-dimethyl-2-oxo-7-(tetrahydro-2H-pyran-4-yl)-1,2-dihydroquinolin-5-yl)-5,6,7,8-tetrahydropyrido[3,2-d]pyrimidin-2-yl)-N-(3-(4-(2,6-dioxopiperidin-3-yl)-5-fluorobenzo-furan-2-yl)prop-2-yn-1-yl)picolinamide] | > 80% | < 1 nM | > 1000 nM | < 20% |
| Cc1cc(N2CCOc3nc(-c4ccc(C(=O)NCC#Cc5cc6c(C7CCC(=O)NC7=O)nccc6o5)nc4)ncc32)cc2c1n(C)c(=O)n2C (centres unmarked) [Example A160, N-(3-(4-(2,6-dioxo-piperidin-3-yl)furo[3,2-c]pyridin-2-yl)prop-2-yn-1-yl)-5-(5-(1,3,7-trimethyl-2-oxo-2,3-dihydro-1H-benzo[d]imidazol-5-yl)-6,7-dihydro-5H-pyrimido[4,5-b] [1,4]oxazin-2-yl)picolinamide] | > 80% | < 1 nM | > 1000 nM | < 20% |
| Cc1cc2c(N3CCCc4nc(-c5ccc(C(=O)NCC#Cc6ccc7occ(C8CCC(=O)NC8=O)c7c6)nc5)ccc43)cc(C3CCOCC3)cc2n(C)c1=O (centres unmarked) [Example B127, 5-(5-(1,3-dimethyl-2-oxo-7-(tetrahydro-2H-pyran-4-yl)-1,2-dihydroquinolin-5-yl)-5,6,7,8-tetrahydro-1,5-naphthyridin-2-yl)-N-(3-(3-(2,6-dioxopiperidin-3-yl)benzofuran-5-yl)prop-2-yn-1-yl)picolinamide] | > 80% | 1 to 9.9 nM | > 1000 nM | < 20% |
| CC(C)c1cc(-c2cccc3cc(-c4ccc(C(=O)NCC#Cc5ccc6scc(C7CCC(=O)NC7=O)c6c5)nc4)ncc23)cc2c1n(C)c(=O)n2C (centres unmarked) [Example A164, N-(3-(3-(2,6-dioxo-piperidin-3-yl)benzo[b]thiophen-5-yl)prop-2-yn-1-yl)-5-(8-(7-isopropyl-1,3-dimethyl-2-oxo-2,3-dihydro-1H-benzo [d]imidazol-5-yl)isoquinolin-3-yl)picolinamide] | > 80% | 10 to 99 nM | > 1000 nM | < 20% |
| Cc1cc2c(N3CCCc4nc(-c5ccc(C(=O)NCC#Cc6cc7c(C8CCC(=O)NC8=O)cccc7o6)nc5)ncc43)cc(C(C)C)nc2n(C)c1=O (centres unmarked) [Example B56, N-(3-(4-(2,6-dioxopiperidin-3-yl)benzofuran-2-yl)prop-2-yn-1-yl)-5-(5-(2-isopropyl-6,8-dimethyl-7-oxo-7,8-dihydro-1,8-naphthyridin-4-yl)-5,6,7,8-tetrahydropyrido[3,2-d]pyrimidin-2-yl)picolinamide] | > 80% | 1 to 9.9 nM | > 1000 nM | < 20% |
| Cc1cc(-c2cc3cccc(-c4ccc5c(c4)n(C)c(=O)n5C)c3cn2)cnc1C(=O)NCC#Cc1ccc2occ(C3CCC(=O)NC3=O)c2c1 (centres unmarked) [Example A155, 5-(8-(1,3-dimethyl-2-oxo-2,3-dihydro-1H-benzo[d]imidazol-5-yl)isoquinolin-3-yl)-N-(3-(3-(2,6-dioxo-piperidin-3-yl)benzofuran-5-yl)prop-2-yn-1-yl)-3-methylpicolinamide] | > 80% | 1 to 9.9 nM | > 1000 nM | < 20% |
